Details: human, in vivo
Source text: According to the invention, the excretion rate (excretion) is a marker representing the degree of discharge into urine of the amount of target components that have been filtered through the glomeruli by way of the regulating function of the renal tubules (reabsorption and secretion), and it is expressed as a proportion or percentage, or in arbitrary units. The value can be calculated after excluding the effect of reabsorption or concentration of water by correction using a correction factor, and expressed as fractional excretion (FE). Since urine often has a variable concentration rate, the percentages of reabsorption and excretion of D-serine and/or D-asparagine in the kidneys of a subject may be corrected using a “correction factor” that corrects for the urine concentration rate. According to one embodiment of the invention, for example, the subject D-serine excretion rate and/or the subject D-asparagine excretion rate may be corrected by a correction factor derived from the blood and/or urine. In its most simple form, the excretion rate is expressed as a percentage of the amount of target components in urine divided by the glomerular filtration rate for the target components, and the glomerular filtration rate obtained by inulin clearance or the actually measured urinary volume, as well as the amounts of target components in blood and/or in urine, may also be used for the calculation. L-amino acid levels (preferably the levels of L-serine and/or L-asparagine) in urine may also be used as urinary volume correction factors for calculation of the D-amino acid excretion rate. Creatinine clearance, calculated by urine creatinine level or the blood creatinine level, may also be used as a correction factor, expressing the D-serine excretion rate by the following formula, for example. This may then be multiplied by 100 to obtain a percent (%).
The test protocol was approved by the ethics committee of the national research and development agency: National Institutes of Biomedical Innovation, Health and Nutrition, and written informed consent was obtained from all of the test subjects.
Sample preparation from human blood plasma and urine was carried out as follows: First a 20-fold volume of methanol was added to and completely mixed with the blood plasma. […]
The amino acid optical isomers were quantified using the following two-dimensional HPLC system. […] NBD-amino acids were detected by fluorescence detection at 530 nm using excitation light of 470 nm. The NBD-amino acid retention time was identified from standard amino acid optical isomers and quantified by a calibration curve.
The blood urine D-serine level and blood urine D-asparagine level and creatinine level were calculated by substitution into the following formulas.

For `NC(=O)C[C@@H](N)C(=O)O` [D-asparagine], the “excretion rate after administration of ARB” value was 35.39% and the “excretion rate before administration of ARB” value was 45.71%.
In the case of `N[C@H](CO)C(=O)O` [D-serine], the “excretion rate after administration of ARB” value is reported as 25.73% and the “excretion rate before administration of ARB” value is reported as 64.56%.
